According to patent publication US20150005347A1, “NITROGEN-CONTAINING HETEROCYCLIC DERIVATIVE HAVING 2-IMINO GROUP AND PEST CONTROL AGENT INCLUDING THE SAME” (MEIJI SEIKA PHARMA CO., LTD., priority 2012, published 2015):
Like-named read-outs stand apart in the source and are kept apart here.

How the values were obtained:
Type in all cases: in vivo
[1] = test system: Nilaparvata lugens exhibiting drug resistance to imidacloprid; test: Foliar spray test, Nilaparvata lugens exhibiting drug resistance to imidacloprid; conditions: 144 h, read-out: mortality of larvae
Method: Test Example 16 Pest Control Test of Nilaparvata lugens
(§1) A drug solution of the compound of the present invention at a predetermined concentration, which had been prepared so as to be a 50% acetone water (0.05% Tween20 available), was foliar sprayed to a rice seedling in pot culture. […] Thereafter, the larvae were left to stand in a thermostatic chamber (16 hours of light period-8 hours of dark period) at 25° C. […] Test in duplicate.
(§2) Mortality of larvae(%)={number of dead larvae/(number of survived larvae+number of dead larvae)}×100
Further, for the origin of test pests, insects of Nilaparvata lugens collected outdoors within the Fukuoka prefecture in 2005 were used.

Callosobruchus chinensis = test: Pest control test against Callosobruchus chinensis, topical treatment of adults
Method: Test Example 5 Pest control test against Callosobruchus chinensis
1 μL (/head) of a drug solution of the compound of the present invention prepared at a predetermined concentration with acetone was treated to the back of Callosobruchus chinensis adults. After the drug treatment, the adults were transferred to a plastic cup and left to stand in a thermostatic chamber at 25° C.
Rate of agonized adults(%)={number of dead adults/(number of survived adults+number of dead adults)}×100

Laodelphax striatella = test: Pest control test of Laodelphax striatella, soil irrigation treatment of rice seedling; conditions: soil irrigation treatment
Excerpt: <Soil Irrigation Treatment Test>
Test Example 10 Pest Control Test of Laodelphax striatellua
(§3) A rice seedling in pot culture was subjected to soil irrigation treatment with a drug solution of the compound of the present invention at a predetermined concentration, which had been prepared so as to be a 10% acetone water. Three days after the treatment, ten second instar larvae of Laodelphax striatella were each released thereto. Thereafter, the larvae were left to stand in a thermostatic chamber (16 hours of light period-8 hours of dark period) at 25° C. […] The test was performed in duplicate.
as §2

Sogatella furcifera = test: Pest control test of Sogatella furcifera, soil irrigation treatment
Method: Test Example 11 Pest Control Test of Sogatella furcifera
as §3, with “Sogatella furcifera” for “Laodelphax striatella”
as §2

[2] = test system: Laodelphax striatella exhibiting drug resistance to fipronil; test: Foliar spray test, Laodelphax striatella exhibiting drug resistance to fipronil; conditions: Laodelphax striatellus, 144 h, read-out: mortality of larvae
Method: Test Example 15 Pest Control Test of Laodelphax striatella
as §1, §2
Further, for the origin of test pests, insects of Laodelphax striatella collected outdoors within the Kumamoto prefecture in 2006 were used.

Aphis gossypii = test: Pest control test of Aphis gossypii, cucumber leaf disk foliar spray; conditions: Aphis gossypii, foliar
In short: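 Cucumber leaf disks (2.0 cm) sprayed with compound at a set concentration in 50% acetone water with 0.05% Tween20, air-dried, then infested with first instar larvae; held at 25 °C, 16 h light/8 h dark. Larval mortality (%) = dead/(survived + dead) × 100; duplicate.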

Nephotettix cincticeps = test: Pest control test of Nephotettix cincticeps, soil irrigation treatment; conditions: for % Mortality, Test Example 14 Nephotettix cincticeps: soil irrigation treatment
Method: Test Example 14 Pest Control Test of Nephotettix cincticeps
as §3, with “five” for “ten”, “Nephotettix cincticeps” for “Laodelphax striatella”
as §2

[3] = test system: susceptible populations of Sogatella furcifera; test: Soil irrigation test, susceptible populations of Sogatella furcifera
Method: as §3, with “Three days after the treatment, ten second instar larvae of Laodelphax striatella were each released thereto.” left out
as §2
Further, for comparison, the test against a populations of Sogatella furcifera which is highly susceptible to fipronil was performed by the same method as described above, and the results thereof are shown in Table 44.
In addition, for the origin of test pests, bugs collected within the city of Odawara in 2010 as the drug resistant Sogatella furcifera, and bugs collected within the city of Chigasaki in 1970 and then successively reared indoors for a long time as the susceptible populations of Sogatella furcifera were used.

[4] = test system: Laodelphax striatella exhibiting drug resistance to fipronil; test: Soil irrigation test, Laodelphax striatella exhibiting drug resistance to fipronil
Method: Test Example 20 Pest Control Test of Laodelphax striatella
as §3, with “Three days after the treatment, ten second instar larvae of Laodelphax striatella were each released thereto.” left out
as §2
In addition, for the origin of test pests, bugs collected within the Kumamoto prefecture in 2006 as the drug resistant Laodelphax striatella, and bugs successively reared indoors for a long time as the susceptible populations of Laodelphax striatella were used.

[5] = 72 h, read-out: mortality of larvae
[6] = read-out: % Mortality, Test Example3 Aphis gossypii

FC(F)(F)C(=S)/N=c1\ccccn1Cc1ccc(Cl)nc1 [Compound 1-20, N-[1-((6-chloropyridin-3-yl)methyl)pyridin-2(1H)-ylidene]-2,2,2-trifluoroethanethioamide]
mortality at 20 ppm [1]: ≥ 80%
mortality of adults (Callosobruchus chinensis; 0.1 μg/head on the back of adults, twenty four hours after treatment): ≥ 80%
% Mortality, Test Example5 Callosobruchus chinensis (Callosobruchus chinensis; Concentration 10 (ppm)): 100%
% Mortality, Test Example5 Callosobruchus chinensis (Callosobruchus chinensis; Concentration 100 (ppm)): 100%
% Mortality, Test Example 10 Laodelphax striatella (Laodelphax striatella; 0.005 mg/pot): 75%
% Mortality, Test Example 10 Laodelphax striatella (Laodelphax striatella; 0.01 mg/pot): 91%
% Mortality, Test Example 10 Laodelphax striatella (Laodelphax striatella; 0.05 mg/pot): 100%
% Mortality, Test Example 11 Sogatella furcifera (Sogatella furcifera; 0.005 mg/pot): 53%
% Mortality, Test Example 11 Sogatella furcifera (Sogatella furcifera; 0.01 mg/pot): 88%
mortality at 1.25 ppm [2]: ≥ 80%
mortality at 20 ppm (Aphis gossypii; [5]): ≥ 80%
mortality at 100 ppm (Aphis gossypii; [5]): ≥ 80%
mortality at 1.25 ppm (Aphis gossypii; [6]): 75%
mortality at 5 ppm (Aphis gossypii; [6]): 100%
mortality at 20 ppm (Aphis gossypii; [6]): 100%
mortality at 100 ppm (Aphis gossypii; [6]): 100%
% Mortality, Test Example 14 Nephotettix cincticeps (Nephotettix cincticeps; 0.0001 mg/pot): 67%
% Mortality, Test Example 14 Nephotettix cincticeps (Nephotettix cincticeps; 0.001 mg/pot): 67%
% Mortality, Test Example 14 Nephotettix cincticeps (Nephotettix cincticeps; 0.01 mg/pot): 100%
mortality of larvae (Nephotettix cincticeps; soil irrigation, 0.05 mg/seedling, three days after release): ≥ 80%
Insecticidal effects against Sogatella furcifera (mortality of larvae %), Susceptible populations six days after the treatment ([3]; Rate 0.005 mg/pot): 75%
Insecticidal effects against Sogatella furcifera (mortality of larvae %), Susceptible populations six days after the treatment ([3]; Rate 0.01 mg/pot): 88%
Insecticidal effects against Laodelphax striatella (mortality of larvae %), Drug resistant populations six days after the treatment ([4]; Rate 0.005 mg/pot, drug resistant populations): 79%
insecticidal effects against drug resistant Laodelphax striatella ([4]; fipronil-resistant): high insecticidal effects
mortality of larvae against drug resistant populations compared with susceptible populations of Laodelphax striatella ([4]; fipronil-resistant vs susceptible): equivalent mortality of larvae
